Type in all cases: biochemical
Details in all cases: HeLa S3 lysate, sfGFP/mCherry ratio, 2 hrs at 30° C.

Assay [1] relates to MYC. The assay is described as follows: In vitro transcription-translation (IVTT) assay, MYC reporter. Summed up:
(§1)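 Reporter: mCherry, P2A, then 3×FLAG-target peptide-sfGFP fusion, IRES-initiated; HeLa S3 lysate IVTT; cpd dilutions 30 μM−0.1 μM half-log in 100% DMSO (dilution-plate conc); DNA added last; 2 h, 30° C; PBS quench.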

Assay [2] deals with ALK. The experiment in a line: In vitro transcription-translation (IVTT) assay, ALK reporter. An outline of the steps: as §1
For assay [3], the system named is KRAS G12D. The experiment in a line: In vitro transcription-translation (IVTT) assay, KRAS G12D reporter. Summed up:
as §1

The text below walks through data of patent US20250129021A1, “SMALL MOLECULE PROTEIN SYNTHESIS MODULATORS” (Interdict Bio, Inc., priority 2023, published 2025).

pIC50: −log10 of the molar value. Counter-ions that a name gives are not always drawn.

Broadly, the pIC50 is the negative decadic logarithm of the IC50, by convention in mol/L.

Turning to `COc1ccc(C[C@@H]2NC[C@@H](O)[C@H]2OC(=O)NCCN(Cc2c[nH]cn2)C(=O)C2CCC2)cc1` [V187540, (2S,3S,4R)-4-hydroxy-2-[(4-methoxyphenyl)methyl]pyrrolidin-3-yl N-{2-[1-cyclobutyl-N-(1H-imidazol-4-ylmethyl)formamido]ethyl}carbamate], the results for the pIC50 in assay [1], in assay [2] and in assay [3] were < 4.52, 4.70 to 5.00 and < 4.52, respectively.

As for `CCN(CC)Cc1nnc(NC(=O)O[C@@H]2[C@@H](O)CN[C@@H]2Cc2ccc(OC)cc2)s1` [V187552, (2R,3S,4S)-4-hydroxy-2-[(4-methoxyphenyl)methyl]pyrrolidin-3-yl N-{5-[(diethylamino)methyl]-1,3,4-thiadiazol-2-yl}carbamate; trifluoroacetic acid], the pIC50 in assay [1], in assay [2] and in assay [3] was < 4.52 throughout.

Turning to `COc1ccc(C[C@H]2NC[C@H](O)[C@H]2OC(=O)Nc2nnc(C)s2)cc1` [V187553, (2R,3S,4S)-4-hydroxy-2-[(4-methoxyphenyl)methyl]pyrrolidin-3-yl N-(5-methyl-1,3,4-thiadiazol-2-yl)carbamate; trifluoroacetic acid], the pIC50 in assay [1], in assay [2] and in assay [3] was < 4.52 throughout.

For the compound `COc1ccc(C[C@H]2NC[C@H](O)[C@H]2OC(=O)NCCN2C[C@@H](NC(=O)C3CC(F)(F)C3)[C@H](NC(=O)C3CC(F)(F)C3)C2)cc1` [V187554], the pIC50 in assay [1], in assay [2] and in assay [3] was < 4.52 each time.

With `COc1ccc(C[C@H]2NC[C@H](O)[C@H]2OC(=O)NCCN2CCCC2)cc1` [V187565, (2R,3S,4S)-4-hydroxy-2-[(4-methoxyphenyl)methyl]pyrrolidin-3-yl N-[2-(pyrrolidin-1-yl)ethyl]carbamate; trifluoroacetic acid], the pIC50 in assay [1] was < 4.52; in assay [2], > 5.00; in assay [3], < 4.52.

As for `COc1ccc(C[C@H]2NC[C@H](O)[C@H]2OC(=O)NCCN2CCC2)cc1` [V187566, (2R,3S,4S)-4-hydroxy-2-[(4-methoxyphenyl)methyl]pyrrolidin-3-yl N-[2-(azetidin-1-yl)ethyl]carbamate; trifluoroacetic acid], the pIC50 was < 4.52 in assay [1], 4.70 to 5.00 in assay [2] and < 4.52 in assay [3].

In the case of `COc1ccc(C[C@H]2NC[C@H](O)[C@H]2OC(=O)NCC[C@H]2CNCCN2Cc2ccccc2)cc1` [V187568, (2R,3S,4S)-4-hydroxy-2-[(4-methoxyphenyl)methyl]pyrrolidin-3-yl N-{2-[(2S)-1-benzylpiperazin-2-yl]ethyl}carbamate], the pIC50 in assay [1] is < 4.52; in assay [2], 4.52 to 4.70; in assay [3], < 4.52.

As to `COc1ccc(C[C@H]2NC[C@H](O)[C@H]2OC(=O)NCCN2C[C@@H](O)[C@H](O)C2)cc1` [V187577, (2R,3S,4S)-4-hydroxy-2-[(4-methoxyphenyl)methyl]pyrrolidin-3-yl N-{2-[(3R,4R)-3,4-dihydroxypyrrolidin-1-yl]ethyl}carbamate], the pIC50 in assay [1] was < 4.52; in assay [2], > 5.00; in assay [3] it was 4.70 to 5.00.

As for `COc1ccc(C[C@H]2NC[C@H](O)[C@H]2OC(=O)NCCN2C[C@@H](O)[C@H](NC(C)=O)C2)cc1` [V187578, (2R,3S,4S)-4-hydroxy-2-[(4-methoxyphenyl)methyl]pyrrolidin-3-yl N-{2-[(3R,4R)-3-acetamido-4-hydroxypyrrolidin-1-yl]ethyl}carbamate], the pIC50 is < 4.52 in assay [1], 4.52 to 4.70 in assay [2] and < 4.52 in assay [3].

Consider `COc1ccc(C[C@H]2NC[C@H](O)[C@H]2OC(=O)NCCN2CC(O)(CNC(C)=O)C2)cc1` [V187582, (2R,3S,4S)-4-hydroxy-2-[(4-methoxyphenyl)methyl]pyrrolidin-3-yl N-{2-[3-(acetamidomethyl)-3-hydroxyazetidin-1-yl]ethyl}carbamate hydrochloride], for which the results for the pIC50 in assay [1], in assay [2] and in assay [3] were < 4.52, 4.70 to 5.00 and < 4.52, respectively.

With `CCNc1c(NCCNC(=O)O[C@@H]2[C@@H](O)CN[C@@H]2Cc2ccc(OC)cc2)c(=O)c1=O` [V187589, (2R,3S,4S)-4-hydroxy-2-[(4-methoxyphenyl)methyl]pyrrolidin-3-yl N-(2-{[2-(ethylamino)-3,4-dioxocyclobut-1-en-1-yl]amino}ethyl)carbamate; trifluoroacetic acid], the pIC50 in assay [1], in assay [2] and in assay [3] was < 4.52 each time.

`COc1ccc(C[C@H]2NC[C@H](O)[C@H]2OC(=O)NCCCCN)cc1` [V187592, (2R,3S,4S)-4-hydroxy-2-[(4-methoxyphenyl)methyl]pyrrolidin-3-yl N-(4-aminobutyl)carbamate; trifluoroacetic acid]: the pIC50 in assay [1], in assay [2] and in assay [3] was > 5.00 throughout.

On to `CCN(Cc1ccccc1)Cc1nnc(NC(=O)O[C@@H]2[C@@H](O)CN[C@@H]2Cc2ccc(OC)cc2)s1` [V187597, (2R,3S,4S)-4-hydroxy-2-[(4-methoxyphenyl)methyl]pyrrolidin-3-yl N-(5-{[benzyl(ethyl)amino]methyl}-1,3,4-thiadiazol-2-yl)carbamate], for which the pIC50 in assay [1], in assay [2] and in assay [3] was < 4.52 in each case.

With `COc1ccc(C[C@H]2NC[C@H](O)[C@H]2OC(=O)NCCN2CC(O)C(F)(F)C2)cc1` (stereo partly drawn) [V187620], the pIC50 in assay [1] is 4.70 to 5.00; in assay [2] it was > 5.00; in assay [3], 4.52 to 4.70.

For the compound `COc1ccc(C[C@H]2NC[C@H](O)[C@H]2OC(=O)NCCN2CC3(CNC3)C2)cc1` [V187623, (2R,3S,4S)-4-hydroxy-2-[(4-methoxyphenyl)methyl]pyrrolidin-3-yl N-(2-{2,6-diazaspiro [3.3]heptan-2-yl}ethyl)carbamate], the pIC50 was < 4.52 in assay [1], 4.52 to 4.70 in assay [2] and < 4.52 in assay [3].

Take `COc1ccc(C[C@H]2NC[C@H](O)[C@H]2OC(=O)NCCN2CC(N)C2)cc1` [V187624, (2R,3S,4S)-4-hydroxy-2-[(4-methoxyphenyl)methyl]pyrrolidin-3-yl N-[2-(3-aminoazetidin-1-yl)ethyl]carbamate]: the pIC50 in assay [1] is < 4.52; in assay [2], > 5.00; in assay [3], < 4.52.

As to `CCN(CC)CCOCCNC(=O)O[C@@H]1[C@@H](O)CN[C@@H]1Cc1ccc(OC)cc1` [V187625, (2R,3S,4S)-4-hydroxy-2-[(4-methoxyphenyl)methyl]pyrrolidin-3-yl N-{2-[2-(diethylamino)ethoxy]ethyl}carbamate; trifluoroacetic acid], the pIC50 in assay [1], in assay [2] and in assay [3] was < 4.52 in each case.

In the case of `COc1ccc(C[C@H]2NC[C@H](O)[C@H]2OC(=O)NCCOCCN2C(=O)CNC2=O)cc1` [V187627], the pIC50 in assay [1] is 4.70 to 5.00; in assay [2], > 5.00; in assay [3], 4.52 to 4.70.

Turning to `COc1ccc(C[C@H]2NC[C@H](O)[C@H]2OC(=O)NCCOCCn2ccnc2)cc1` [V187628, (2R,3S,4S)-4-hydroxy-2-[(4-methoxyphenyl)methyl]pyrrolidin-3-yl N-{2-[2-(imidazol-1-yl)ethoxy]ethyl}carbamate; trifluoroacetic acid], the pIC50 in assay [1] was > 5.00; in assay [2] it was > 5.00; in assay [3], 4.70 to 5.00.

`COc1ccc(C[C@H]2NC[C@H](O)[C@H]2OC(=O)NCCCCCN(C)C)cc1` [V187638, (2R,3S,4S)-4-hydroxy-2-[(4-methoxyphenyl)methyl]pyrrolidin-3-yl N-[5-(dimethylamino)pentyl]carbamate]: the figures for the pIC50 in assay [1], in assay [2] and in assay [3] were 4.70 to 5.00, > 5.00 and 4.70 to 5.00, respectively.

Take `COc1ccc(C[C@H]2NC[C@H](O)[C@H]2OC(=O)NCCN2CCC3(CC(O)C3)C2)cc1` (stereo partly drawn) [V187642, (2R,3S,4S)-4-hydroxy-2-[(4-methoxyphenyl)methyl]pyrrolidin-3-yl N-(2-{2-hydroxy-6-azaspiro[3.4]octan-6-yl}ethyl)carbamate]: the pIC50 in assay [1], in assay [2] and in assay [3] was < 4.52 each time.

Turning to `COc1ccc(C[C@H]2NC[C@H](O)[C@H]2OC(=O)NCCN2CCC3(CNC3)C2)cc1` [V187644, (2R,3S,4S)-4-hydroxy-2-[(4-methoxyphenyl)methyl]pyrrolidin-3-yl N-(2-{2,6-diazaspiro[3.4]octan-6-yl}ethyl)carbamate; trifluoroacetic acid], the pIC50 in assay [1] was < 4.52; in assay [2], 4.52 to 4.70; in assay [3], < 4.52.

Turning to `COc1ccc(C[C@H]2NC[C@H](O)[C@H]2OC(=O)Nc2nsc(C)n2)cc1` [V187652, (2R,3S,4S)-4-hydroxy-2-[(4-methoxyphenyl)methyl]pyrrolidin-3-yl N-(5-methyl-1,2,4-thiadiazol-3-yl)carbamate; trifluoroacetic acid], the pIC50 in assay [1], in assay [2] and in assay [3] was < 4.52 throughout.

Regarding `COc1ccc(C[C@H]2NC[C@H](O)[C@H]2OC(=O)Nc2n[nH]c(C)n2)cc1` [V187657, (2R,3S,4S)-4-hydroxy-2-[(4-methoxyphenyl)methyl]pyrrolidin-3-yl N-(5-methyl-1H-1,2,4-triazol-3-yl) carbamate], the pIC50 in assay [1] was 4.70 to 5.00; in assay [2], > 5.00; in assay [3], 4.52 to 4.70.

Consider `COc1ccc(C[C@H]2NC[C@H](O)[C@H]2OC(=O)Nc2cc(C)[nH]n2)cc1` [V187658, (2R,3S,4S)-4-hydroxy-2-[(4-methoxyphenyl)methyl]pyrrolidin-3-yl N-(5-methyl-1H-pyrazol-3-yl)carbamate; trifluoroacetic acid], for which the pIC50 in assay [1], in assay [2] and in assay [3] was < 4.52 throughout.
